The source of these data is ChEMBL document CHEMBL5154898, “Discovery and Optimization of 5-Hydroxy-Diclofenac toward a New Class of Ligands with Nanomolar Affinity for the CaMKIIα Hub Domain” (J Med Chem, 2022).

In data set [1] the target is T1, Calcium/calmodulin-dependent protein kinase type II subunit alpha (Rattus norvegicus, UniProt P11275). In words: Displacement of [3H]NCS-382 from CaMK2alpha in rat brain cerebral cortex membrane homogenates assessed as inhibition constant measured after 60 mins by TopCount scintillation counting method. Type of data set: cell membranes.
Data set [2] concerns the target Calcium/calmodulin-dependent protein kinase type II subunit alpha (Rattus norvegicus) (UniProt P11275). Kind of data set: Inhibition of [3H]NCS-382 binding to CaMK2alpha in rat brain cerebral cortex membrane homogenates at 100 uM measured after 60 mins by TopCount scintillation counting method relative to control. In kind it is cell membranes.
Data set [3] addresses Calcium/calmodulin-dependent protein kinase type II subunit alpha (Homo sapiens, UniProt Q9UQM7). In words: Inhibition of [3H]NCS-382 binding to CaMK2alpha (unknown origin).
The target in data set [4] is T1, Calcium/calmodulin-dependent protein kinase type II subunit alpha. Kind of data set: Displacement of [3H]HOCPCA from CaMK2alpha in rat brain cerebral cortex membrane homogenates assessed as inhibition constant measured after 60 mins by TopCount scintillation counting method. Type of data set: cell membranes. For orientation: In a radioligand displacement assay an active substance lowers the binding of a labelled ligand.

A short description of data set [5]: Plasma concentration in C57BL/6J mouse at 10 mg/kg , po measured after 30 mins by UPLC based tandem mass spectrometry analysis. Type of data set: ADME, organism-based.
Data set [6] in a line: Brain concentration in C57BL/6J mouse at 10 mg/kg , po measured after 30 mins by UPLC based tandem mass spectrometry analysis. Type of data set: ADME, organism-based. To be noted: read-out: Ct.
Data set [7] is described as follows: Ratio of drug concentration in brain to plasma in C57BL/6J mouse at 10 mg/kg , po measured after 30 mins by UPLC based tandem mass spectrometry analysis. To be noted: read-out: BPR. In kind it is ADME, organism-based.
Data set [8] has as its system MDR1 (P-gp). Kind of data set: Apparent permeability across apical to basolateral side in dog MDCKII-MDR1 cells at 3 uM measured after 60 to 90 mins by LC-MS/MS analysis. In kind it is ADME, cell-based, Canis lupus familiaris. The following applies: MDCK-MDR1, time 60-90 min.
Data set [9] is described as follows: Plasma concentration in C57BL/6J mouse at 5 mg/kg , sc measured after 30 mins by UPLC based tandem mass spectrometry analysis. Type of data set: ADME, organism-based.
The nature of data set [10]: Chemical stability of compound in PBS buffer at pH 7.4 assessed as half life at 25 degreeC incubated for 7 days by HPLC based LC-MS analysis. Type of data set: physicochemical. To be noted: time 7 day.
The nature of data set [11]: Chemical stability of compound in PBS buffer at pH 7.4 assessed as half life at 37 degreeC incubated for 7 days by HPLC based LC-MS analysis. The following applies: time 7 day. In kind it is physicochemical.
A short description of data set [12]: Brain concentration in C57BL/6J mouse at 5 mg/kg , sc measured after 30 mins by UPLC based tandem mass spectrometry analysis. Type of data set: ADME, organism-based. To be noted: read-out: Ct.
Data set [13] is described as follows: Ratio of drug concentration in brain to plasma in C57BL/6J mouse at 5 mg/kg , sc measured after 30 mins by UPLC based tandem mass spectrometry analysis. Type of data set: ADME, organism-based. The following applies: read-out: BPR.
Data set [14] relates to MDR1 (P-gp). Kind of data set: Apparent permeability across basolateral to apical side in dog MDCKII-MDR1 cells at 3 uM measured after 60 to 90 mins by LC-MS/MS analysis. In kind it is ADME, cell-based, Canis lupus familiaris. To be noted: MDCK-MDR1, time 60-90 min.
In data set [15] the test system is BCRP. Kind of data set: Apparent permeability across apical to basolateral side in dog MDCK-II cells expressing BCRP at 3 uM measured after 60 to 90 mins by LC-MS/MS analysis. Type of data set: ADME, cell-based, Canis lupus familiaris. The following applies: time 60-90 min.
The test system of data set [16] is BCRP. Kind of data set: Apparent permeability across basolateral to apical side in dog MDCK-II cells expressing BCRP at 3 uM measured after 60 to 90 mins by LC-MS/MS analysis. To be noted: time 60-90 min. In kind it is ADME, cell-based, Canis lupus familiaris.
Data set [17] deals with BCRP. In words: Apparent permeability across apical to basolateral side in dog MDCK-II cells expressing BCRP at 3 uM preincubated with BCRP inhibitor, Ko 143 for 15 to 30 mins followed by compound addition and measured after 60 to 90 mins by LC-MS/MS analysis. The following applies: with Ko 143 (BCRP inhibitor; concentration not stated), time 60-90 min. Type of data set: ADME, cell-based, Canis lupus familiaris.

The test system of data set [18] is BCRP. Kind of data set: Apparent permeability across basolateral to apical side in dog MDCK-II cells expressing BCRP at 3 uM preincubated with BCRP inhibitor, Ko 143 for 15 to 30 mins followed by compound addition and measured after 60 to 90 mins by LC-MS/MS analysis. To be noted: with Ko 143 (BCRP inhibitor; concentration not stated), time 60-90 min. Type of data set: ADME, cell-based, Canis lupus familiaris.

The test system of data set [19] is MDR1 (P-gp). Kind of data set: Apparent permeability across apical to basolateral side in dog MDCKII-MDR1 cells at 3 uM preincubated with P-gp inhibitor elacridar for 15 to 30 mins followed by compound addition and measured after 60 to 90 mins by LC-MS/MS analysis. In kind it is ADME, cell-based, Canis lupus familiaris. The following applies: MDCK-MDR1, with elacridar (P-gp inhibitor; concentration not stated), time 60-90 min.

Data set [20] has as its system MDR1 (P-gp). Kind of data set: Apparent permeability across basolateral to apical side in dog MDCKII-MDR1 cells at 3 uM preincubated with P-gp inhibitor elacridar for 15 to 30 mins followed by compound addition and measured after 60 to 90 mins by LC-MS/MS analysis. In kind it is ADME, cell-based, Canis lupus familiaris. To be noted: MDCK-MDR1, with elacridar (P-gp inhibitor; concentration not stated), time 60-90 min.

Data set [21] concerns the target T1, Calcium/calmodulin-dependent protein kinase type II subunit alpha. In words: Inhibition of [3H]NCS-382 binding to CaMK2alpha in rat cerebrocortical membranes. Type of data set: cell membranes, Cerebral cortex, Membrane.
Data set [22] is described as follows: Chemical stability of compound in PBS buffer at pH 7.4 assessed as cyclized intermediate formation at 25 to 37 degreeC incubated for 7 days by HPLC based LC-MS analysis. Type of data set: physicochemical. To be noted: pH 7.4, 168 h, time 7 day.
Data set [23] in a line: Chemical stability of compound in PBS buffer at pH 7.4 assessed as oxidized intermediate formation at 25 to 37 degreeC incubated for 7 days by HPLC based LC-MS analysis. Type of data set: physicochemical. The following applies: pH 7.4, 168 h, time 7 day.

T1 sequence (P11275 whole entry): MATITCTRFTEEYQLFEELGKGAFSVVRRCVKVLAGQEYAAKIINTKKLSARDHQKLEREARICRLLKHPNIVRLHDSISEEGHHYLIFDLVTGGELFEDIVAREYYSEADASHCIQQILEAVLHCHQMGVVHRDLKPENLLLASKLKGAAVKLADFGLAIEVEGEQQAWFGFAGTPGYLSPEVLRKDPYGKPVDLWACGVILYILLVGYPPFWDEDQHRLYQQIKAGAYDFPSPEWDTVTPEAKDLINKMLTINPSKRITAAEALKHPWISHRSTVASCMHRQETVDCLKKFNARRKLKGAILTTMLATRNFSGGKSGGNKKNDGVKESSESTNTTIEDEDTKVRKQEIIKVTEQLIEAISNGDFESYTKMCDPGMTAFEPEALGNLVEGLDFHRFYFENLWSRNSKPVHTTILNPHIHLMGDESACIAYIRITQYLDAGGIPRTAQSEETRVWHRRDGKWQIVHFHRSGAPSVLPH
Sequence of Calcium/calmodulin-dependent protein kinase type II subunit alpha (Homo sapiens, UniProt Q9UQM7) (Q9UQM7 whole entry): as the sequence (P11275 whole entry) above, with N324S counted along it
Sequence of Calcium/calmodulin-dependent protein kinase type II subunit alpha (Rattus norvegicus) (P11275 whole entry): as the sequence (P11275 whole entry) above

Consider `O=C(O)Cc1ccc(O)cc1Oc1c(Cl)cccc1Cl`, for which the Ki (usually a dissociation constant, usually derived from enzyme kinetics or from competition with a known ligand) in [1] worked out at 0.031 µM.

Take `Oc1ccc(Oc2ccccc2Cl)c(Cc2cc(O)no2)c1`: in data set [1], the Ki is 20 µM.

With `O=C(O)C(F)(F)c1cc(O)ccc1Oc1ccccc1Cl`, the Ki in [1] was determined as 1.2 µM.

Regarding `O=C1Cc2cc(O)ccc2N1c1c(Cl)cccc1Cl`, the inhibition constant Ki in data set [1] is over 100 µM. Also, the inhibition (as a rule, the share of the control response that was lost under treatment) in data set [2] was under 50%.

On to `O=C(O)/C=C/c1ccccc1` [CINNAMIC ACID], for which the inhibition constant (Ki) in [3] was over 100 µM.

Take `O=C(O)CCCO` [OXYBATE]: the inhibitory constant (Ki) in [3] was found to be 4.3 µM.

Take `O=C(O)Cc1ccc(O)cc1Oc1ccccc1`: in data set [1], the Ki turned out to be 0.047 µM.

Regarding `Oc1ccc(Oc2ccccc2Cl)c(Cc2nnn[nH]2)c1`, the Ki was found to be 0.094 µM in data set [4] and 0.07 µM in data set [1]. Further, the concentration at 0.5 h in data set [5] was determined as 1.97 µg/mL; in data set [6], 0.022 µg/mL. Besides, the Kp at 0.5 h in data set [7] stood at 0.012.

Consider `O=C(O)Cc1ccc(O)cc1Sc1ccccc1`, for which the inhibition constant (Ki) in data set [1] came out at 0.077 µM.

With `O=C(O)Cc1ccc(O)cc1Nc1c(Cl)cccc1Cl`, the Papp A→B (usually how fast a substance crosses the layer from the apical side) at 3 µM in [8] worked out at 46.6 nm/s; in [15], 12.5 nm/s; in [17], 30.5 nm/s; in data set [19] it was 41.5 nm/s. For the same compound, the concentration at 0.5 h in data set [9] came to 6.79 µg/mL; in data set [12], 0.088 µg/mL. The half-life (usually the time needed for the level to fall by half in the phase considered) in data set [10] is 10 h; in [11], 24 h. Besides, the Kp at 0.5 h in data set [13] came to 0.013. Further, the Papp B→A (as a rule, how fast a substance crosses the layer from the basolateral side) at 3 µM in data set [14] is 37.3 nm/s; in data set [16], 191 nm/s; in data set [18], 40.3 nm/s; in data set [20], 27.1 nm/s.

For the compound `O=C(O)Cc1ccccc1Oc1ccc(O)cc1CC(=O)O`, the Ki in data set [1] came to 0.83 µM.

Regarding `O=C(O)Cc1ccccc1O`, in data set [21], the half-inhibitory concentration (IC50) (in general, the concentration at which inhibition is half-maximal) was found to be 2.1 µM and the Ki is 2 µM.

For `O=C(O)Cc1cc(O)ccc1Oc1c(Cl)cccc1Cl`, in data set [1], the Ki is 0.07 µM.

In the case of `O=c1[nH]c(Cc2cc(O)ccc2Oc2ccccc2Cl)no1`, in [1], the inhibition constant (Ki) was determined as 1.2 µM.

`O=C(O)Cc1ccccc1Nc1c(Cl)cc(O)cc1Cl` [4'-HYDROXY-DICLOFENAC]: the Ki in data set [3] worked out at 2.1 µM.

`Oc1ccc(Oc2ccccc2Cl)c(-c2nnn[nH]2)c1`: the Ki in data set [4] stood at 40 µM; in data set [1] it was 25 µM.

Take `O=C(O)/C=C/c1ccc(O)cc1` [COUMARIC ACID]: in data set [3], the Ki is over 100 µM.

For `O=C(O)Cc1ccc(O)cc1Cc1ccccc1`, the Ki in [1] came to 0.5 µM.

With `O=C(O)Cc1ccccc1Nc1c(Cl)cccc1Cl` [DICLOFENAC], the Ki in data set [1] is 5.1 µM.

As for `O=C(O)Cc1cc(O)ccc1Oc1ccccc1O`, the Ki in [1] was 0.033 µM.

For `O=C(O)Cc1cc(O)ccc1Oc1ccc([N+](=O)[O-])cc1Cl`, in data set [1], the Ki worked out at 0.014 µM.

As to `O=C(O)Cc1ccc(O)cc1Oc1ccccc1Cl`, the Ki in data set [4] came out at 0.053 µM; in data set [1], 0.027 µM. Also, the concentration at 0.5 h in data set [5] came to 29.4 µg/mL; in data set [6] it was 0.308 µg/mL. In addition, the Stability entry in data set [22] and in data set [23] was “Stable” each time. Also, the Kp at 0.5 h in data set [7] was found to be 0.011.

On to `O=c1[nH]nc(Cc2cc(O)ccc2Oc2ccccc2Cl)[nH]1`, for which, in data set [1], the Ki came out at 0.42 µM.

Take `O=C(O)Cc1ccc(O)cc1`: the Ki in [3] came out at 2.2 µM.

With `O=C(O)Cc1cccc(O)c1` [3-Hydroxyphenylacetate], in [21], the IC50 was 0.13 µM and the Ki is 0.126 µM.

For the compound `NC(=O)Cc1cc(O)ccc1Oc1ccccc1Cl`, in data set [1], the Ki was over 100 µM. Moreover, in data set [2], the inhibition is under 50%.
